Data: patent US20110166132A1, “Gamma Secretase Modulators” (Amgen Inc., priority 2007, published 2011)
pIC50: −log10 of the molar value.

Biological target: T1, gamma secretase (Homo sapiens, UniProt P49768)
T1 construct: HEK293 cells stably expressing full length Amyloid Precursor Protein (APP); endogenous in cells; host or cells: HEK 293 cells stably expressing full length APP
Assay: GSM cell-based assay: Aβ 42 inhibition or reduction in HEK 293 cells over-expressing APP (sandwich ELISA)
Settings: approximate IC50; HEK293 cells stably expressing full length APP, 24 hours incubation, 10-point dose response starting at 10 μM
Source text: GSM cell-based assays were designed to measure the modulation of Aβ 42 from HEK 293 cells over-expressing APP.
Three simultaneous cell-based assays, namely Aβ 42 inhibition or reduction, Aβ 40 inhibition or reduction and a measurement of cell viability of the cells from which the Aβ 42/40 readout was obtained, together gave an interpretation of gamma secretase modulation (GSM). The assays measure Aβ 42 and Ab 40 from conditioned medium of test compound treated HEK 293 cells.
HEK293 cells stably expressing full length Amyloid Precursor Protein (APP) were plated at a density of 100K cells/well in 96 well plates (Costar). The cells were cultivated for 6 hours at 37° C. and 5% CO2 in DMEM supplemented with 10% FBS. The test compounds were then added to cells in 10-point dose response concentrations with the starting concentration being 10 μM. The compounds were diluted from stock solutions in DMSO and the final DMSO concentration of the test compounds on cells was 0.1%. After 24 hours of incubation with the test compounds the supernatant conditioned media was collected and the Aβ 42, Aβ 40 levels were determined using a sandwich ELISA. A cell viability test (CellTiter-Blue Cell Viability assay, Promega) on the cells from which the conditioned medium was harvested for Aβ 42 or Aβ 40 readouts gave an indication of cell survivability as a possible reason for false positive Aβ 42 or 40 reduction or inhibition readout. The IC50 of the compound (for either Aβ 42 or Aβ 40) was calculated from the percent of control or percent inhibition of Aβ 42 or Aβ 40 as a function of the concentration of the test compound.
The sandwich ELISA to detect Aβ 42 or Aβ 40 was performed in 96 well microtiter plates, which were pre-treated with goat anti-rabbit IgG (Pierce). The capture and detecting antibody pair that were used to detect Aβ 42 and Aβ 40 from cell supernatants were rabbit monoclonal Antibody 42 (RabMAb 42) and affinity purified polyclonal Antibody 40 pAB40 (Biosource) as capture antibodies and biotinylated 6E10 (Signet Labs Inc.) as detection antibody. The optimal concentration for RabMAb 42 was 1 μg/ml in Superblock/TBS (Pierce) that was supplemented with 0.05% Tween 20 (Sigma). The optimal concentration for the pAb40 antibody was 3 μg/ml in Superblock/TBS (Pierce) that was supplemented with 0.05% Tween 20 (Sigma). Optimal concentration for the detection antibody 6E10-biotinylated was 0.5 μg/ml in Superblock/TBS (Pierce) that had been supplemented with 2% normal goat serum and 2% normal mouse serum.
Cellular supernatants were incubated with the capture antibody for 16-20 hours at 4° C., followed by 3 wash steps in TBS-tween (0.05%). The detecting antibody incubation was for 3 hours at 4° C., again followed by the wash steps as described previously. The final readout of the ELISA is Time-Resolved Fluorescence (counts per minute) using Delfia reagents Streptavidin-Europium and Enhancement solutions (Perkin Elmer) and the EnVision Multilabel plate reader (Perkin Elmer).

Compared with Cc1cc(-c2ccc(NC(=O)[C@H](C)c3cc(C(F)(F)F)cc(C(F)(F)F)c3)cc2)ccn1 [Cpd 1, (2R)-2-(3,5-bis(trifluoromethyl)phenyl)-N-(4-(2-methyl-4-pyridinyl)phenyl)-propanamide], Cc1cc(-c2ccc(NC(=O)Cc3cc(C(F)(F)F)cc(C(F)(F)F)c3)cc2)ccn1 [Cpd 87, 2-(3,5-bis(trifluoromethyl)phenyl)-N-(4-(2-methyl-4-pyridinyl)phenyl)acetamide] is 0.25 log units lower in pIC50: 6.59 for the first, 6.34 for the second. The first is the more potent here.

First: Cc1cc(-c2ccc(NC(=O)Cc3cccc(Cl)c3)cc2)ccn1 [Cpd 8, 2-(3-chlorophenyl)-N-(4-(2-methyl-4-pyridinyl)phenyl)acetamide]
Second: Cc1cc(-c2ccc(NC(=O)Cc3c(F)cccc3Cl)cc2)ccn1 [Cpd 106, 2-(2-chloro-6-fluorophenyl)-N-(4-(2-methyl-4-pyridinyl)phenyl)acetamide]
The pIC50 of the first is higher: 6.10 for the first, under 5.00 for the second.

Compared with COc1ccc(Cl)cc1C(=O)Nc1ccc(-c2ccnc(C)c2)cc1 [Cpd 10], COc1ccc(C(=O)Nc2ccc(-c3ccnc(C)c3)cc2)cc1Cl [Cpd 37] is 0.39 log units higher in pIC50: 5.86 for the first, 6.25 for the second. The second is the more potent here.

Compared with Cc1cc(-c2ccc(NC(=O)Cc3cccc4ccccc34)cc2)ccn1 [Cpd 15, N-(4-(2-methyl-4-pyridinyl)phenyl)-2-(1-naphthalenyl)acetamide], Cc1cc(-c2ccc(NC(=O)Cc3ccccc3OCc3ccccc3)cc2)ccn1 [Cpd 113, 2-(2-(benzyloxy)phenyl)-N-(4-(2-methyl-4-pyridinyl)phenyl)acetamide] is lower in pIC50: 6.05 for the first, under 5.00 for the second.

Going from Cc1cc(-c2ccc(NC(=O)Cc3ccc4c(c3)OCO4)cc2)ccn1 [Cpd 16, 2-(1,3-benzodioxol-5-yl)-N-(4-(2-methyl-4-pyridinyl)phenyl)acetamide] to Cc1cc(-c2ccc(NC(=O)Cc3ccc4c(c3)CCO4)cc2)ccn1 [Cpd 116, 2-(2,3-dihydro-1-benzofuran-5-yl)-N-(4-(2-methyl-4-pyridinyl)phenyl)acetamide], the pIC50 falls from 6.33 to 5.38 (0.95 log units). The first is the more potent here.

Going from Cc1cc(-c2ccc(NC(=O)Cc3ccc(-c4ccccc4)cc3)cc2)ccn1 [Cpd 19, 2-(4-biphenylyl)-N-(4-(2-methyl-4-pyridinyl)phenyl)acetamide] to Cc1cc(-c2ccc(NC(=O)Cc3ccc(Oc4ccccc4)cc3)cc2)ccn1 [Cpd 112], the pIC50 falls from 6.25 to 5.24 (1.01 log units). The first is the more potent here.

Cc1cc(-c2ccc(NC(=O)c3cn4c(C)cccc4n3)cc2)ccn1 [Cpd 20] and COc1cccc(C(=O)Nc2ccc(-c3ccnc(C)c3)cc2)c1 [Cpd 34] are within 0.2 log units of each other in pIC50: 5.58 for the first, 5.53 for the second.

First: Cc1cc(-c2ccc(NC(=O)[C@@H](C)c3ccccc3)cc2)ccn1 [Cpd 21, (2S)-N-(4-(2-methyl-4-pyridinyl)phenyl)-2-phenylpropanamide]
Second: Cc1cc(-c2ccc(NC(=O)C(c3ccccc3)C(C)C)cc2)ccn1 (centres unmarked) [Cpd 39, 3-methyl-N-(4-(2-methyl-4-pyridinyl)-phenyl)-2-phenylbutanamide]
The pIC50 of the first is 0.55 log units lower: 5.77 for the first, 6.32 for the second.

Going from Cc1cc(-c2ccc(NC(=O)c3cc(C4CC4)on3)cc2)ccn1 [Cpd 22] to Cc1cc(-c2ccc(NC(=O)C3CC3)cc2)ccn1 [Cpd 54], the pIC50 falls from 5.80 to under 5.00.

Cc1cc(-c2ccc(NC(=O)C(C)c3cccc(Cl)n3)cc2)ccn1 (centres unmarked) [Cpd 24, 2-(6-chloro-2-pyridinyl)-N-(4-(2-methyl-4-pyridinyl)phenyl)propanamide] and Cc1cccc([C@H](CC(C)C)C(=O)Nc2ccc(-c3ccnc(C)c3)cc2)c1 [Cpd 105, (2S)-4-methyl-2-(3-methylphenyl)-N-(4-(2-methyl-4-pyridinyl)phenyl)pentanamide] are within 0.2 log units of each other in pIC50: 5.71 for the first, 5.76 for the second.

Compared with Cc1cc(-c2ccc(NC(=O)Cc3cncc(Br)c3)cc2)ccn1 [Cpd 27, 2-(5-bromo-3-pyridinyl)-N-(4-(2-methyl-4-pyridinyl)phenyl)acetamide], Cc1cc(-c2ccc(NC(=O)Cc3n[nH]c4ccc(Br)cc34)cc2)ccn1 [Cpd 79, 2-(5-bromo-1H-indazol-3-yl)-N-(4-(2-methyl-4-pyridinyl)phenyl)acetamide] is 0.32 log units higher in pIC50: 5.61 for the first, 5.93 for the second. The second is the more potent here.

Going from Cc1cc(-c2ccc(NC(=O)c3cccc(Oc4ccccc4)c3)cc2)ccn1 [Cpd 31] to Cc1cc(-c2ccc(NC(=O)c3ccccc3-c3ccccc3)cc2)ccn1 [Cpd 91], the pIC50 falls from 6.07 to under 5.00. The first is the more potent here.

Compared with COC1CCCC(C(=O)Nc2ccc(-c3ccnc(C)c3)cc2)C1 (centres unmarked) [Cpd 35], CC(=O)N1CCC(C(=O)Nc2ccc(-c3ccnc(C)c3)cc2)CC1 [Cpd 55] is lower in pIC50: 5.37 for the first, under 5.00 for the second. The first is the more potent here.

First: Cc1cc(-c2ccc(NC(=O)Cc3ccc(C)s3)cc2)ccn1 [Cpd 38, N-(4-(2-methyl-4-pyridinyl)phenyl)-2-(5-methyl-2-thiophenyl)acetamid]
Second: Cc1cc(-c2ccc(NC(=O)Cc3c(C)noc3C)cc2)ccn1 [Cpd 89, 2-(3,5-dimethyl-4-isoxazolyl)-N-(4-(2-methyl-4-pyridinyl)phenyl)acetamide]
The pIC50 of the first is higher: 5.63 for the first, under 5.00 for the second. The first is the more potent here.

Cc1cc(-c2ccc(NC(=O)c3cccc(N(C)C)c3)cc2)ccn1 [Cpd 46] and Cc1cc(-c2ccc(NC(=O)c3cc(Cl)nc(Cl)c3)cc2)ccn1 [Cpd 51] cannot be ordered by pIC50: under 5.00 for the first, under 5.00 for the second.

Going from Cc1cc(-c2ccc(NC(=O)C(C)(C)c3ccc(Cl)cc3)cc2)ccn1 [Cpd 48, 2-(4-chlorophenyl)-2-methyl-N-(4-(2-methyl-4-pyridinyl)phenyl)propanamide] to Cc1cc(-c2ccc(NC(=O)Cc3ccc(OC(F)(F)F)cc3)cc2)ccn1 [Cpd 110, N-(4-(2-methyl-4-pyridinyl)phenyl)-2-(4-(trifluoromethoxy)phenyl)acetamide], the pIC50 rises from under 5.00 to 5.49.

Going from Cc1cc(-c2ccc(NC(=O)C3CCCO3)cc2)ccn1 (centres unmarked) [Cpd 52] to Cc1cc(-c2ccc(NC(=O)C3CCc4ccccc43)cc2)ccn1 (centres unmarked) [Cpd 117], the pIC50 rises from under 5.00 to 5.41. The second is the more potent here.

Cc1cc(-c2ccc(NC(=O)C3CC(=O)N(c4ccccc4)C3)cc2)ccn1 (centres unmarked) [Cpd 53] and Cc1cc(-c2ccc(NC(=O)C3CC(=O)c4ccccc43)cc2)ccn1 (centres unmarked) [Cpd 120] cannot be ordered by pIC50: under 5.00 for the first, under 5.48 for the second.

Going from Cc1cc(-c2ccc(NC(=O)C3CC(=O)N(C4CCCCC4)C3)cc2)ccn1 (centres unmarked) [Cpd 60] to Cc1cc(-c2ccc(NC(=O)C(CC3CCC3)c3cccc(Br)c3)cc2)ccn1 (centres unmarked) [Cpd 124, 2-(3-bromophenyl)-3-cyclobutyl-N-(4-(2-methyl-4-pyridinyl)phenyl)propanamide], the pIC50 rises from under 5.00 to 6.55. The second is the more potent here.

Compared with Cc1cc(-c2ccc(NC(=O)C(C)c3ccc4c(c3)[nH]c3ccc(Cl)cc34)cc2)ccn1 (centres unmarked) [Cpd 65, 2-(6-chloro-9H-carbazol-2-yl)-N-(4-(2-methyl-4-pyridinyl)phenyl)propanamide], Cc1cc(-c2ccc(NC(=O)[C@H](C)c3ccc4c(c3)[nH]c3ccc(Cl)cc34)cc2)ccn1 [Cpd 122, (2R)-2-(6-chloro-9H-carbazol-2-yl)-N-(4-(2-methyl-4-pyridinyl)phenyl)propanamide] is 0.49 log units lower in pIC50: 6.97 for the first, 6.48 for the second.

Going from COc1ccc2cc([C@@H](C)C(=O)Nc3ccc(-c4ccnc(C)c4)cc3)ccc2c1 [Cpd 66, (2R)-2-(6-methoxy-2-naphthalenyl)-N-(4-(2-methyl-4-pyridinyl)phenyl)propanamide] to Cc1cc(-c2ccc(NC(=O)C(CCF)c3cccc(Br)c3)cc2)ccn1 (centres unmarked) [Cpd 129, 2-(3-bromophenyl)-4-fluoro-N-(4-(2-methyl-4-pyridinyl)phenyl)butanamide], the pIC50 falls from 6.69 to under 5.00.

Cc1cc(-c2ccc(NC(=O)c3cc(Cl)cc(Cl)c3)c(F)c2)ccn1 [Cpd 86] and Cc1cc(-c2ccc(NC(=O)Cc3ccccn3)cc2)ccn1 [Cpd 88, N-(4-(2-methyl-4-pyridinyl)phenyl)-2-(2-pyridinyl)acetamide] cannot be ordered by pIC50: under 5.00 for the first, under 5.00 for the second.

Going from Cc1cc(-c2ccc(NC(=O)Cc3ccc(OCc4ccccc4)cc3)cc2)ccn1 [Cpd 111, 2-(4-(benzyloxy)phenyl)-N-(4-(2-methyl-4-pyridinyl)phenyl)acetamide] to Cc1cc(-c2ccc(NC(=O)Cc3ccc4oc(-c5ccccc5)nc4c3)cc2)ccn1 [Cpd 125, N-(4-(2-methyl-4-pyridinyl)phenyl)-2-(2-phenyl-1,3-benzoxazol-5-yl)acetamide], the pIC50 rises from 5.48 to 6.57 (1.09 log units).

For Cc1cc(-c2ccc(NC(=O)[C@@H](CC(C)C)c3cccc(-c4ccc(N5CCOCC5)cc4)c3)cc2)ccn1 [Cpd 127, (2S)-4-methyl-N-(4-(2-methyl-4-pyridinyl)phenyl)-2-(4′-(4-morpholinyl)-3-biphenylyl)pentanamide], the pIC50 was 6.89.
